Read-outs that look alike come from different tables or passages of the source.

Results on eight compounds are retold here after article PMC4742222, “Discovery of Novel Hepatitis C Virus NS5B Polymerase Inhibitors by Combining Random Forest, Multiple e-Pharmacophore Modeling and Docking” (PLoS ONE, 2016).

One data set addresses T1, HCV NS5B protein (Hepatitis C virus genotype 1b, UniProt P26663).
T1 construct: Purified HCV NS5B protein and HCV (-) 3’ T RNA template were obtained as described previously
Kind of data set: biochemical. As to conditions: for IC50: in vitro enzyme activity, 2'-O-Me-CTP positive control, read-out: NS5B inhibition assay IC50. The protocol: The inhibitory effects of the tested reagents on in vitro NS5B activity were determined by NS5B-catalyzed RNA synthesis assay as described previously. Purified HCV NS5B protein and HCV (-) 3’ T RNA template were obtained as described previously. The tested reagents were added at a variety of concentrations in 50 μl reaction mixture consisting of 20 mM HEPES (pH 8.0), 1.5 mM MnCl2, 100 mM ammonium acetate, 1 mM DTT, 500 μM GTP, 250 μM each of CTP, ATP and UTP, 40U of RNasin (Biostar, Canada), 2 μg/ml HCV (-) 3’ TRNA template and 300 ng purified NS5B protein. After 2 h at 30°C, the reaction was stopped by 100 mM EDTA and RNA was purified using the RNaid Kit (Qbiogene). To determine NS5B-catalyzed RNA synthesis, real-time RT-PCR was performed. cDNA was synthesized using AMV-reverse transcriptase (TAKARA, Japan) and the primer targeted to NS5B-catalyzed RNA product (5’-[…]-3’) and then digested with RNAase. PCR was carried out using RNA product–specific primers (forward, […], reverse 5’-[…]-3’, probe, 5’-[…]-3’) and TaqMan RT-PCR Kit according to the instruction. 50% inhibitory concentrations (IC50) were calculated using Statistical SPSS program version 11.5 by probit analysis of regression.

A short description of data set [1]: Cell proliferation assay (WST-1). The class given is cell-based. As to conditions: human. The procedure: (§1) Huh7.5.1 cells were seeded in 96-well plates at a density of 2 × 10^4 cells per well overnight. Cells were incubated with serial diluted compounds for 48 h. The viability of Huh7.5.1 cells was determined in 96-well tissue culture plates using the cell proliferation reagent WST-1 (Roche), and absorbance (OD450 / reference OD630) was measured to detect the cytotoxicity of compounds according to the manufacturer’s protocol for the Cell Proliferation Reagent WST-1. CC50 is the concentration of the compound at which the cell growth was inhibited by 50%. The values of CC50 were plotted by the GraphPad Prism 5 software.
Background: Tetrazolium dyes change colour on reduction, which living cells bring about.

In a further data set the target is NS5B protein (Hepatitis C virus genotype 1b, UniProt P26663). Kind of data set: biochemical. The data set is classed as binding. As to conditions: for Kd: dissociation equilibrium constant, NS5B immobilized on CM5 chip, read-out: SPR on NS5B KD. The procedure: The SPR experiments were performed using a Biacore T200 optical biosensor (Biacore Life Sciences, GE Healthcare). The NS5B protein at 50 μg/ml prepared in buffer of 10 mM sodium acetate (pH 5.5) was immobilized by standard amine coupling to a CM5 biosensor chip. The compounds were injected for 60 s at a flow rate of 30 μL/min using in concentration series between 1 and 250 μM in running buffer (1 × PBS with 5% DMSO). The dissociation was monitored for 300 s. Raw data collected on an SPR biosensor were further processed to eliminate any artifacts such as nonspecific binding and discrepancies in buffer composition. All data processing and analysis was performed using the Biacore T200 Evaluation Software.
Chain of NS5B protein (P26663 2420-3010): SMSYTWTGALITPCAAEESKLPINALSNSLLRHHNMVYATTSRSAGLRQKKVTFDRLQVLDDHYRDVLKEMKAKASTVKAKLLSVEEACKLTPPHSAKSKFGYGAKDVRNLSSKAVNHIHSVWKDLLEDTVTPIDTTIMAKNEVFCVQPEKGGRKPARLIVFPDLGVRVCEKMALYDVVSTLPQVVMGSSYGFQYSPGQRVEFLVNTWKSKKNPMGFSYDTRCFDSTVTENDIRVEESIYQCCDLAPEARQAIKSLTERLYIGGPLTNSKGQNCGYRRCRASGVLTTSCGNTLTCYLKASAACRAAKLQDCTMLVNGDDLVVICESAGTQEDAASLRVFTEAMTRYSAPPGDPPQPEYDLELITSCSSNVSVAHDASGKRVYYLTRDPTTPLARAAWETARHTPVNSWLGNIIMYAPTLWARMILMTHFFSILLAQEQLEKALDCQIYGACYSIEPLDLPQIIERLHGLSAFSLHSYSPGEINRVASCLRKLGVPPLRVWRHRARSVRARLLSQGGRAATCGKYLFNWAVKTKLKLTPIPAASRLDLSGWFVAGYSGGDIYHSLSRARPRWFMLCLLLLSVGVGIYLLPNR

The test system of data set [2] is HCV (JFH-1, genotype 2a). Description: microbe, parasite or virus in culture. The class given is cell-based, Hepatitis C virus. As to conditions: for EC50: luminescence reduced by 50% in Huh7.5.1 cells, mean of three experiments, read-out: Anti-HCV activity virus assay JFH1 EC50; for SI (selective index): ratio of CC50 to EC50. An excerpt: The HCV virus assay was constructed by using the method developed as previously described, albeit with a slight modification. Briefly, the plasmid of pRluc-JFH-1 was constructed as following. Based on the plasmid of pJFH-1, as a gift from Apath,L.L.C., a humanized Renilla luciferase reporter gene was introduced into the C-terminus of NS5A in the JFH-1 genome. The plasmid phRluc-JFH-1 was made via digestion with the XbaI restriction enzyme and used as a template for RNA transcription. The virus transcripts were prepared in vitro by using the Ambion MEGAscript Kits, and then 10 μg of RNA was mixed with […] of Huh7.5.1, which was gifted by Jin Zhong (Institute Pasteur of Shanghai, Chinese Academy of Science), at a concentration of 1×10^7 cells/ml. After electroporation, the Huh7.5.1 cells containing virus transcripts were seeded in a 10-cm dish. After the cells were cultured for 4 days, the supernatant was collected and filtered to obtain the stock solution of the hRluc-JFH-1 virus. To obtain the virus titer, the virus stocks were diluted at a gradient of 1:10, and the Huh7.5.1 cells were incubated for 48h at 37°C. Then, the cells were harvested, and the luminescence was detected via the manufacturer’s protocol of the Renilla-Glo™ Luciferase Assay System (Promega).
Huh7.5.1 cells were seeded in 96-well plates at a density of 2 ×10^4 cells per well at 37°C overnight. All of the synthetic compounds were diluted with DMSO to 10 mM of stock solution. The initial concentration of compounds was 20 μM and then diluted at a gradient of 1:4 to concentrations ranging from 20 μM to 0.02 μM, containing 0.5% DMSO. For the HCVcc system, serial diluted compounds were mixed with a certain titer of HCVcc-hRluc-JFH1 virus, and the final concentration of HCVcc-hRluc-JFH1 virus titer was diluted to the numbers of relative luminescence units (RLU) ranging from 20,000 to 50,000 RLU and then added to the Huh7.5.1 cells. Then, the cells were cultured for 2 days at 37°Cand harvested. The luminescence was detected via the manufacturer’s protocol of the Renilla-Glo™ Luciferase Assay System. EC50 is the concentration of the compound at which the HCV luminescence level in the Huh7.5.1 cells is reduced by 50%. The values of EC50 were plotted by the GraphPad Prism 5 software.

A further data set has as its system Huh7.5.1 cells. Description: Cell proliferation assay (WST-1). The class given is cell-based. The protocol:
as §1

Data set [3] concerns HCV (JFH-1, genotype 2a). The data set is classed as cell-based, Hepatitis C virus. The conditions noted are these: at a concentration of 12.5 μM.
For another data set, the target named is NS5B polymerase. The conditions noted are these: S2 Table, validation set of the RF model; ref DOI in column Reference (DOI); cited from earlier work.
Setting [4] is: Huh7.5.1 cells, 48 h, WST-1, mean of three experiments, read-out: CC50.

T1 sequence (P26663 2420-3010): as above

On to `COc1cc(C(=O)NNS(=O)(=O)c2ccccc2)cc(OCc2ccccc2)c1OC` [N1], for which the IC50 – broadly, the point on the concentration scale where inhibition reaches its midpoint – on HCV NS5B protein turned out to be 3.63 µM. Also, the CC50 (usually the concentration at which the toxic effect on the cells reaches its halfway point) at 48 h in data set [1] (setting [4]) is over 100 µM. The dissociation constant Kd (commonly the constant that tells how readily two partners part at equilibrium) at NS5B protein is 62.9 µM. Further, the half-maximal effective concentration (EC50) (in general, the concentration giving half of the maximal effect) in the data set on HCV (JFH-1, genotype 2a) [2] (Hepatitis C virus, Huh-7.5.1) is over 12.5 µM.

For the compound `O=C(CSc1nc2ccccc2o1)Nc1cc(C(F)(F)F)cc(C(F)(F)F)c1` [N2], the IC50 at HCV NS5B protein is 3 µM. For the same compound, the CC50 at 48 h in data set [1] (setting [4]) is 51.3 µM. Moreover, the cellular cytotoxicity entry in the data set on Huh7.5.1 cells (at a concentration of 12.5 μM) is given as “no cellular cytotoxicity”. Moreover, the Kd on NS5B protein stood at 4.67 µM. Moreover, the “HCV virus titers suppressed” value in the data set with HCV (JFH-1, genotype 2a) [3] is about 99%. Further, the EC50 with HCV (JFH-1, genotype 2a) [2] (Hepatitis C virus, Huh-7.5.1) is 1.61 µM. Also, the “SI (selective index)” value in the data set with HCV (JFH-1, genotype 2a) [2] was found to be 32.1.

As for `Cc1ccc(O)c(NC(=O)COc2ccc3c(=O)c(-c4ccccc4)c(C)oc3c2)c1` [N4], the half-inhibitory concentration (IC50) at HCV NS5B protein amounted to 2.01 µM. For the same compound, in data set [1] (setting [4]), the CC50 at 48 h is over 100 µM. In addition, the Kd on NS5B protein worked out at 123 µM. In the data set with HCV (JFH-1, genotype 2a) [2] (Hepatitis C virus, Huh-7.5.1), the EC50 is over 12.5 µM.

With `Cc1ccc(N(Cc2cc3cccc(C)c3nc2O)S(=O)(=O)c2ccccc2)c(C)c1` [N5, N-(2,4-dimethylphenyl)-N-((8-methyl-2-oxo-1,2-dihydroquinolin-3-yl)methyl)benzenesulfonamide], at HCV NS5B protein, the IC50 was determined as 2.2 µM. Further, in data set [1] (setting [4]), the 50% cytotoxic concentration (CC50) at 48 h was over 100 µM. Moreover, the EC50 in the data set on HCV (JFH-1, genotype 2a) [2] (Hepatitis C virus, Huh-7.5.1) came out at 10.9 µM.

As to `CC(C)OC(=O)[C@H](C)N[P@](=O)(OC[C@H]1O[C@@H](n2ccc(=O)[nH]c2=O)[C@](C)(F)[C@@H]1O)Oc1ccccc1` [PSI-7977, sofosbuvir, reference compound], the 50% cytotoxic concentration (CC50) at 48 h in data set [1] (setting [4]) was over 20 µM. Moreover, the EC50 in the data set on HCV (JFH-1, genotype 2a) [2] (Hepatitis C virus, Huh-7.5.1) worked out at 0.49 µM. In the data set with HCV (JFH-1, genotype 2a) [2], the “SI (selective index)” value was over 40.82.

Turning to `Nc1cc(Cn2c(C(=O)NS(=O)(=O)c3ccc(O)cc3)c(-c3ccc[nH]c3=O)c3cc(Cl)ccc32)ccn1` [compound 137], the IC50 on NS5B polymerase is over 50 µM.

`CCC[C@H](NC(=O)[C@@H]1[C@H]2CCC[C@H]2CN1C(=O)[C@@H](NC(=O)[C@@H](NC(=O)c1cnccn1)C1CCCCC1)C(C)(C)C)C(=O)C(=O)NC1CC1` [telaprevir, reference compound] registered a cytotoxic concentration (CC50) at 48 h in data set [1] of over 10 µM. Also, in the data set on HCV (JFH-1, genotype 2a) [2] (Hepatitis C virus, Huh-7.5.1), the 50% effective concentration (EC50) worked out at 0.02 µM. In addition, in the data set with HCV (JFH-1, genotype 2a) [2], the “SI (selective index)” value is over 500.

Turning to “N-(8-fluoro-4-oxo-1,4-dihydroquinoline-3-carbonyl)-1,2-dimethyl-1H-imidazole-4-sulfonohydrazide [N3]”, on HCV NS5B protein (from NS5B inhibition IC50), the negative-log IC50 (pIC50) (in general, the negative decadic logarithm of the IC50, by convention in mol/L) worked out at 4.62. For the same compound, on HCV NS5B protein, the concentration for half-maximal inhibition (IC50) was determined as 23.8 µM. In addition, in the data set with Huh7.5.1 cells, the CC50 is over 100 µM. Moreover, the equilibrium dissociation constant (Kd) on NS5B protein stood at 86.1 µM. For the same compound, the pKD – broadly, −log10 of the KD, conventionally taken in molar units – at NS5B protein (from SPR KD) is given as 4.06. Also, in the data set on HCV (JFH-1, genotype 2a) [2], the concentration for a half-maximal effect (EC50) worked out at 21.3 µM.
